What all share (assay): Kinase selectivity, scanMAX Kinase assay panel (DiscoverX), % control at 1 uM
What all share (format): binding

The target in assay [1] is T1, scanMAX Kinase assay panel (Homo sapiens, UniProt O75116).
T1 construct: purchased DiscoverX
The note with it: ROCK2; 1 uM; read-out: Percent Control (%). The method, boiled down: (§1)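 1 uM cpd (DMSO) per kinase; % ctrl = [cpd − pos ctrl]/[neg ctrl − pos ctrl] × 100; hit if <35.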

Assay [2] concerns the target T2, scanMAX Kinase assay panel (Homo sapiens, UniProt Q8NE63).
T2 construct: purchased DiscoverX
T2 sequence (Q8NE63 1-616): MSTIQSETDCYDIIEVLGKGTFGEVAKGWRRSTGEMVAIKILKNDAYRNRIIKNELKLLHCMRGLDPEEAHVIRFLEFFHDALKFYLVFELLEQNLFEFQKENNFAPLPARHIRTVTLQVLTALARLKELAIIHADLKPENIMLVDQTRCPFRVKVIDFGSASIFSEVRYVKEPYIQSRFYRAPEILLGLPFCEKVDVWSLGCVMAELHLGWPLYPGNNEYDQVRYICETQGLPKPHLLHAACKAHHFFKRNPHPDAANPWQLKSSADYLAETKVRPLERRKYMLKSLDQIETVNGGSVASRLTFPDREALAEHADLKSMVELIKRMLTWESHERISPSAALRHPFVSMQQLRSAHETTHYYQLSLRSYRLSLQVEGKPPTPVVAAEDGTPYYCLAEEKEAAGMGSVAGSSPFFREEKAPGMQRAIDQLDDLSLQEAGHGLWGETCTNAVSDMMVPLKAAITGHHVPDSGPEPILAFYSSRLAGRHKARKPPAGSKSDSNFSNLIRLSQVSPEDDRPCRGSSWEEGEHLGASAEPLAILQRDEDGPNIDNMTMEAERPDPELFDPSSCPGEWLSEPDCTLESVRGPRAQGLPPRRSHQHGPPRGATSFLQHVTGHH
The note with it: HIPK4; 1 uM; read-out: Percent Control (%). An outline of the steps:
as §1

Assay [3] deals with T3, scanMAX Kinase assay panel (Homo sapiens, UniProt Q13043).
T3 construct: purchased DiscoverX
T3 sequence (Q13043 1-487): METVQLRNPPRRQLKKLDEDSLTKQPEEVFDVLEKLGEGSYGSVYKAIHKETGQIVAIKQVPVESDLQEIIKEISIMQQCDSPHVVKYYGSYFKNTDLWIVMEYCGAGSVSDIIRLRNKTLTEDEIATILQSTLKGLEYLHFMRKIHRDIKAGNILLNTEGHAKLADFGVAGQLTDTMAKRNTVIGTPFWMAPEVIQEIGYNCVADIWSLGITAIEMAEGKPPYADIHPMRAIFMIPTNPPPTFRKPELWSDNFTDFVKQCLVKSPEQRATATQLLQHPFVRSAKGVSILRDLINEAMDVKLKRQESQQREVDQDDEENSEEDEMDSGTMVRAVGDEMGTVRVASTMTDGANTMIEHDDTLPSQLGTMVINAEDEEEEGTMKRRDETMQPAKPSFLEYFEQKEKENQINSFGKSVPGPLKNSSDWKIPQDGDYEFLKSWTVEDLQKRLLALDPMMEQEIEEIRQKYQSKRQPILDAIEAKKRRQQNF
The following applies: MST1; 1 uM; read-out: Percent Control (%). The method, boiled down:
as §1

The target of assay [4] is T4, scanMAX Kinase assay panel (Homo sapiens, UniProt Q9P289).
T4 construct: purchased DiscoverX
The note with it: MST4; 1 uM; read-out: Percent Control (%). An outline of the steps: as §1

In assay [5] the target is T5, scanMAX Kinase assay panel (Homo sapiens, UniProt P78362).
T5 construct: purchased DiscoverX
The following applies: SRPK2; 1 uM; read-out: Percent Control (%). The method, boiled down:
as §1

Assay [6] addresses T6, scanMAX Kinase assay panel (Homo sapiens, UniProt Q9NQU5).
T6 construct: purchased DiscoverX
The note with it: PAK6; 1 uM; read-out: Percent Control (%). The method, boiled down:
as §1

For assay [7], the target named is T7, scanMAX Kinase assay panel (Homo sapiens, UniProt O43683).
T7 construct: purchased DiscoverX
The following applies: BUB1; 1 uM; read-out: Percent Control (%). The method, boiled down:
as §1

Assay [8] has as its target T8, scanMAX Kinase assay panel (Homo sapiens, UniProt P51817).
T8 construct: purchased DiscoverX
T8 sequence (P51817 1-358): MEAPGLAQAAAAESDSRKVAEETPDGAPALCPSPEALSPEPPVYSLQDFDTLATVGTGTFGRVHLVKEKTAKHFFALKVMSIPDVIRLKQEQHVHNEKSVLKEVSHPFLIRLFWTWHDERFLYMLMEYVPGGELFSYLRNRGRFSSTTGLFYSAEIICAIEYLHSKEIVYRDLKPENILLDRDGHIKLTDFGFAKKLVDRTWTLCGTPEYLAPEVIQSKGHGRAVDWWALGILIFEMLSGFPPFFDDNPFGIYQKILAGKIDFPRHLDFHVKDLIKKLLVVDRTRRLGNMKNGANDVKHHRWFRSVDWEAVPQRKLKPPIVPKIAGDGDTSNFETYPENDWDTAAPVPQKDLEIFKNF
The following applies: PRKX; 1 uM; read-out: Percent Control (%). An outline of the steps:
as §1

The target of assay [9] is T9, scanMAX Kinase assay panel (Homo sapiens, UniProt P00519, H396P).
T9 construct: purchased DiscoverX
The note with it: 1 uM, read-out: Percent Control (%). An outline of the steps: as §1

Assay [10] concerns the target T10, scanMAX Kinase assay panel (Homo sapiens, UniProt P51957).
T10 construct: purchased DiscoverX
The following applies: NEK4; 1 uM; read-out: Percent Control (%). The method, boiled down: as §1

Assay [11] has as its target T11, scanMAX Kinase assay panel (Homo sapiens, UniProt Q16512).
T11 construct: purchased DiscoverX
The note with it: PKN1; 1 uM; read-out: Percent Control (%). The method, boiled down: as §1

The structures appear in SMILES notation. Like-named read-outs stand apart in the source and are kept apart here.

T10 sequence (P51957 whole entry): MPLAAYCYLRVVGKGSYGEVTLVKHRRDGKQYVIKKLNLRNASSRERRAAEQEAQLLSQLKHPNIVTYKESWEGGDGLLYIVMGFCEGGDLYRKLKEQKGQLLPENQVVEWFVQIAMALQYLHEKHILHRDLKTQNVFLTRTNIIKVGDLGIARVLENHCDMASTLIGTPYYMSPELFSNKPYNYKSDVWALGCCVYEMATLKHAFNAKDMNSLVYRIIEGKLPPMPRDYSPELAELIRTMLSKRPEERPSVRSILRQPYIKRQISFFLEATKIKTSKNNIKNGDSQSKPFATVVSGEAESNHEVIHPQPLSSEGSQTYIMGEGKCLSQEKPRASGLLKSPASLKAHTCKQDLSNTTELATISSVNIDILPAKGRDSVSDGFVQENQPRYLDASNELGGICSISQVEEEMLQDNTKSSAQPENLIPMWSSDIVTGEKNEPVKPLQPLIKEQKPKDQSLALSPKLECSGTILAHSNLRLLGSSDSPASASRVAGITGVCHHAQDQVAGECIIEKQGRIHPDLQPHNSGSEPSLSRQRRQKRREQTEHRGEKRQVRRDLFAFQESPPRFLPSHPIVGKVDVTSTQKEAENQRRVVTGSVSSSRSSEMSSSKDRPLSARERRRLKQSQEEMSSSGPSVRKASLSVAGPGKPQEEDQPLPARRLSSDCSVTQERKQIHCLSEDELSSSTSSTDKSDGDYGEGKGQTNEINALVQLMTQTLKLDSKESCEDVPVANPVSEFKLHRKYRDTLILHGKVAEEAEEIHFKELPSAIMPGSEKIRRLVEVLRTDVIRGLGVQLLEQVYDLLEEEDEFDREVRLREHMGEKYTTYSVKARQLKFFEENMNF
T1 sequence (O75116 whole entry): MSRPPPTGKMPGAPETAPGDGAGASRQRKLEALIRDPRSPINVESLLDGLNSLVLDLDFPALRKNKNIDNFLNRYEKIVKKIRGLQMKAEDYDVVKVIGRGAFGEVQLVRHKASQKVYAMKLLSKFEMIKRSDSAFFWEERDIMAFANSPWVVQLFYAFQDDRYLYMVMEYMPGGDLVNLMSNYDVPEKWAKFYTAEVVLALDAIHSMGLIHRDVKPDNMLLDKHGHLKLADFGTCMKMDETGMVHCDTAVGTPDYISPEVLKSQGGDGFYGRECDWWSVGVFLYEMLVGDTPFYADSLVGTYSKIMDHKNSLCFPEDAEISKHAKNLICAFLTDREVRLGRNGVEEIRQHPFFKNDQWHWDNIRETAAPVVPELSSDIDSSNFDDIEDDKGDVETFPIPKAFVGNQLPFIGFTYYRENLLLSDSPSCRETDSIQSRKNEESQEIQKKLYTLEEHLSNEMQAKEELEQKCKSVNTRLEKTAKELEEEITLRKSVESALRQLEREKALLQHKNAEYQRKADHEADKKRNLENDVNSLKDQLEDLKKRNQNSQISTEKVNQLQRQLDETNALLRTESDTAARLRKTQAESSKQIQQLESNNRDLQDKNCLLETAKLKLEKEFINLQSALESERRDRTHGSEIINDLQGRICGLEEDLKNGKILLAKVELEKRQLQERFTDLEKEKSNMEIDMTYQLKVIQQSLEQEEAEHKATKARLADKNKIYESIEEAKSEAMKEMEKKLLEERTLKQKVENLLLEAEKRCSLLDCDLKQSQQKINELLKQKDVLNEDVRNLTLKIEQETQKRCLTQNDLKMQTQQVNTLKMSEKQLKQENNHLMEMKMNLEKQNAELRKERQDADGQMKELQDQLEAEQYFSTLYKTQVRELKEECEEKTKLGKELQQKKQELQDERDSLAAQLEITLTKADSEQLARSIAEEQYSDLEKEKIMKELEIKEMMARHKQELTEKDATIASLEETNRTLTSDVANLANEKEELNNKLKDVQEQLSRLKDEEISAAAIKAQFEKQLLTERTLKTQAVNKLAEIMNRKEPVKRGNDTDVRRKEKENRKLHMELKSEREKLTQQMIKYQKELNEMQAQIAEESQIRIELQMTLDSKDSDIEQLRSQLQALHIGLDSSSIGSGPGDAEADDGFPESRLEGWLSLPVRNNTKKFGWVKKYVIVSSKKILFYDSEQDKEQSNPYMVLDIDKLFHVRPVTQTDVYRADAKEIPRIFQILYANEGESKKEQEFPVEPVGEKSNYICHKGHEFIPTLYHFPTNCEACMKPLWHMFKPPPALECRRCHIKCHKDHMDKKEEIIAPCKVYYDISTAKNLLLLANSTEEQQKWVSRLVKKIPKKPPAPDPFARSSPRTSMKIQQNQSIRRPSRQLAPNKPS
T6 sequence (Q9NQU5 whole entry): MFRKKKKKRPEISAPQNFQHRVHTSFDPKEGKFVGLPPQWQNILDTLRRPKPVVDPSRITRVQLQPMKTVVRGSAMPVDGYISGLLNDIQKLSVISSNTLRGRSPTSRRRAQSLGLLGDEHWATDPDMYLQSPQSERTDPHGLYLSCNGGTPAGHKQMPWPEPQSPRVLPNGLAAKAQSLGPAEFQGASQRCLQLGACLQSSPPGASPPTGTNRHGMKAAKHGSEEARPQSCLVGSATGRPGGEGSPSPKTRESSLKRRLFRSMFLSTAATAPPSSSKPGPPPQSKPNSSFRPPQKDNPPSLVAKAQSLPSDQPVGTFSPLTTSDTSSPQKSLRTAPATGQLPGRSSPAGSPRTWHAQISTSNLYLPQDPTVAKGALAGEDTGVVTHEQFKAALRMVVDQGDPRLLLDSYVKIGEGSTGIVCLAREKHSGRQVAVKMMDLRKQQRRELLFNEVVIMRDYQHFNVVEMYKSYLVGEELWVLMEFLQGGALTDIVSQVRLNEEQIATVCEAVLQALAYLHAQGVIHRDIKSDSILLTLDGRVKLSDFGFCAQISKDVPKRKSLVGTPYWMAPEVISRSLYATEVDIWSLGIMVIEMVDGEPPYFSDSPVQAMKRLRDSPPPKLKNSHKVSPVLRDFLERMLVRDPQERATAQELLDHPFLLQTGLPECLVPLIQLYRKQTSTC
T11 sequence (Q16512 whole entry): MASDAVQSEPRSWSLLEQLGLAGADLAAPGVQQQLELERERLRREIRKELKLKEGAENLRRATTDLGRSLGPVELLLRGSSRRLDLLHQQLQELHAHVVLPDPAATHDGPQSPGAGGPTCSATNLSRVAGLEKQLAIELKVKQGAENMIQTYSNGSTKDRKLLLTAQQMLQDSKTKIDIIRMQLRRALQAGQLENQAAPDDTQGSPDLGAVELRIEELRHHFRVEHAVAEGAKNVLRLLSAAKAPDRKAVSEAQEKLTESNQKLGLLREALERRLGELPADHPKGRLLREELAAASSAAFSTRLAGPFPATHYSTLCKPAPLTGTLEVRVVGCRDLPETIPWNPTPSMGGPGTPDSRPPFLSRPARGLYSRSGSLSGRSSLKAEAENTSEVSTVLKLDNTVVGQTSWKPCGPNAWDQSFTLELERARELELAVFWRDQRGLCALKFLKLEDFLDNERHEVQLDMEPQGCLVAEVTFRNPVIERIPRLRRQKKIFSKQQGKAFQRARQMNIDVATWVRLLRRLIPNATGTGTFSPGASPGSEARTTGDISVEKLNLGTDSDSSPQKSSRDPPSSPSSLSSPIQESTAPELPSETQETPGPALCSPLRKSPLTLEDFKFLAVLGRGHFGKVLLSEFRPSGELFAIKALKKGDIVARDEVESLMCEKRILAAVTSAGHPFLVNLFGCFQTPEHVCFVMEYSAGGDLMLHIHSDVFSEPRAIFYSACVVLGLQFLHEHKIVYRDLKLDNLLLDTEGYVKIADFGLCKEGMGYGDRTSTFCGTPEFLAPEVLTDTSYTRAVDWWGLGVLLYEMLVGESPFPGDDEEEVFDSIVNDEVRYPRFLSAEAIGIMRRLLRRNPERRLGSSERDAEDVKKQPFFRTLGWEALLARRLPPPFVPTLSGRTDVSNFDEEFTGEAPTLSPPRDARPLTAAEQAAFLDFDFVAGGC
T7 sequence (O43683 whole entry): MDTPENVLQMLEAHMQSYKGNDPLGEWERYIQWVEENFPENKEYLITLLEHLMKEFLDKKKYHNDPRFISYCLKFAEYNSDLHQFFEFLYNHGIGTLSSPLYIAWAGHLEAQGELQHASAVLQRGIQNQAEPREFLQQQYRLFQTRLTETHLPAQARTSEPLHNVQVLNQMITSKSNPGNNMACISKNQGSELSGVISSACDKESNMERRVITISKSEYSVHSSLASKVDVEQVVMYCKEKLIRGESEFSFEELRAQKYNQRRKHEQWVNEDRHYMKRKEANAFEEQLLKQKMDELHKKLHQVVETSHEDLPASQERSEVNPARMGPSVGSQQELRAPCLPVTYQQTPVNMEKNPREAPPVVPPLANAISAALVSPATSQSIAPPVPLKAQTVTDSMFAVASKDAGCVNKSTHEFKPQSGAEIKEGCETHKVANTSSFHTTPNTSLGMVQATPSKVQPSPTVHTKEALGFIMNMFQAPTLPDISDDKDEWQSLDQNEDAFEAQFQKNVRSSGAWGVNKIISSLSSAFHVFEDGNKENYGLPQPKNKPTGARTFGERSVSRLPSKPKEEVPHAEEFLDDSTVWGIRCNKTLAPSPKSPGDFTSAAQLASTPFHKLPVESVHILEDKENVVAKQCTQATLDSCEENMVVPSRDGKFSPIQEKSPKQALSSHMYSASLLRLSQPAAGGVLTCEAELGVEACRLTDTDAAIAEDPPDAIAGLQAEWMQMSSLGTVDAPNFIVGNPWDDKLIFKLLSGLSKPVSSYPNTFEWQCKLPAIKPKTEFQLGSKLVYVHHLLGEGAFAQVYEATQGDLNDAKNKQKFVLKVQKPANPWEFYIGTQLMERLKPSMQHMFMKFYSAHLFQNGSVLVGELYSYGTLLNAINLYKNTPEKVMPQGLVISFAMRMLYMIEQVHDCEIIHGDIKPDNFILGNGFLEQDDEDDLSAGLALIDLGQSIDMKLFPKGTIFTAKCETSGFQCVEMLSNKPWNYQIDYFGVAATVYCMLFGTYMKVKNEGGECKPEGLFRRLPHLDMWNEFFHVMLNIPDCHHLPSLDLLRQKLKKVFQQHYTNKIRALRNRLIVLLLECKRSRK

On to `Cc1ccc(C(=O)Nc2ccc(CN3CCN(C)CC3)c(C(F)(F)F)c2)cc1C#Cc1cnc2c(Nc3cnn(C)c3)cccn12` [Example 1, 4-methyl-3-((8-((1-methyl-1H-pyrazol-4-yl)amino)imidazo[1,2-a]pyridin-3-yl)ethynyl)-N-(4-((4-methylpiperazin-1-yl)methyl)-3-(trifluoromethyl)phenyl)benzamide], for which the remaining binding at 1 µM turned out to be 15% in assay [1]; 2% in assay [2]; 27% in assay [3]; 55% in [4]; 97% in assay [5]; 66% in [6]. In addition, the remaining binding at 1 µM came to 84% in assay [7]; 93% in assay [8]; 1% in assay [9] (ABL1 (H396P)-nonphosphorylated); 0% in assay [9] (ABL1 (H396P)-phosphorylated); 9% in assay [10]; 78% in assay [11].

As for `Cc1ccc(NC(=O)C2(C(=O)Nc3ccc(F)cc3)CC2)cc1C#Cc1cnc2c(Nc3cnn(C(C)C)c3)cccn12` [Example 78], the remaining binding at 1 µM in assay [1] came to 100%; in assay [2], 84%; in assay [3], 100%; in [4], 100%; in assay [5], 100%; in [6], 97%. Also, the remaining binding at 1 µM in assay [7] is 100%; in assay [8], 78%; in assay [9] (ABL1 (H396P)-nonphosphorylated), 4%; in assay [9] (ABL1 (H396P)-phosphorylated) it was 64%; in assay [10], 100%; in assay [11] it was 83%.

Take `Cc1cn(-c2cc(NC(=O)c3ccc(C)c(C#Cc4cnc5c(Nc6cnn(C)c6)cccn45)c3)cc(C(F)(F)F)c2)cn1` [Example 12, 4-methyl-N-(3-(4-methyl-1H-imidazol-1-yl)-5-(trifluoromethyl)phenyl)-3-((8-((1-methyl-1H-pyrazol-4-yl)amino)imidazo[1,2-a]pyridin-3-yl)ethynyl)benzamide]: the remaining binding at 1 µM worked out at 100% in assay [1]; 66% in assay [2]; 84% in assay [3]; 91% in assay [4]; 87% in assay [5]; 84% in [6]. For the same molecule, the remaining binding at 1 µM in assay [7] stood at 100%; in assay [8], 97%; in assay [9] (ABL1 (H396P)-nonphosphorylated), 0%; in assay [9] (ABL1 (H396P)-phosphorylated), 10%; in assay [10], 61%; in assay [11] it was 82%.

For the origin of these results see patent US10870647B2, “Imidazopyridine derivative, method for preparing same, and pharmaceutical composition containing same as active ingredient for preventing or treating cancer” (DAEGU-GYEONGBUK MEDICAL INNOVATION FOUNDATION, priority 2016, dated 2020).
